This note sets out measurements from patent publication US8148391B2 (Cephalon, Inc., priority 2006, dated 2012).

In test [1] the target is T1, baculovirus-expressed ALK (Homo sapiens, UniProt Q9UM73).
T1 construct: host or cells: baculovirus expression system
The test can be described thus: ALK Kinase Assay (ELISA-type, time-resolved fluorescence). In kind it is biochemical. The essentials: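 Wells were coated with phospholipase C-γ at 10 μg/mL in Tris-buffered saline. Adding 30 ng/ml enzyme started the reaction, which ran at 37° C for 15 minutes before Eu-N1 PT66 antibody detection. Percent inhibition versus log10 concentration gave IC50 by variable-slope fit.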

In test [2] the target is T2, c-Met (cytoplasmic domain) (Homo sapiens, UniProt P08581).
T2 construct: 10 ng/mL c-Met (cytoplasmic domain, Invitrogen Corporation #PV3143); purchased Invitrogen Corporation PV3143
T2 sequence (P08581 956-1390 limits assumed): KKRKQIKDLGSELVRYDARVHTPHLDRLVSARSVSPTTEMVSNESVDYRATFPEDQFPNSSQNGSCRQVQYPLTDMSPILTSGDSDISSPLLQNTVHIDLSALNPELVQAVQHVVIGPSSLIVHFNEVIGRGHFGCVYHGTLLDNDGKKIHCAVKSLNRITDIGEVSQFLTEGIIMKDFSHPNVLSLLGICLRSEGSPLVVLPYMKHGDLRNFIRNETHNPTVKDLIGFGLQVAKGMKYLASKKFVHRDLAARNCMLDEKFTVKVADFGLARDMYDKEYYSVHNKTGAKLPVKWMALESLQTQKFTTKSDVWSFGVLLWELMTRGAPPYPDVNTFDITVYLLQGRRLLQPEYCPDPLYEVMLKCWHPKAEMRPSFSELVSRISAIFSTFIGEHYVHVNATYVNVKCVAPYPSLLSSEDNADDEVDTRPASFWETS
The test can be described thus: c-Met Kinase Assay (same methods as for ALK, with modifications). In kind it is biochemical. The essentials:
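IC50 values were fitted by variable-slope sigmoidal regression of percent inhibition against log compound concentration. Phosphorylation was read with Eu-N1 PT66 antibody after a 15 min, 37 °C reaction. The reaction was initiated with 10 ng/mL c-Met cytoplasmic domain on wells coated with 10 μg/mL PLC-γ in TBS.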

[3] abbreviates: ALK kinase inhibition, 1 μM ATP, read-out: ALK Activity.
Setting [4] is: c-Met kinase inhibition, 1 μM ATP, read-out: cMet Activity.
Where [5] appears, read: ALK kinase inhibition, 1 μM ATP (Km level), read-out: ALK Activity.
Where [6] appears, read: c-Met kinase inhibition, 1 μM ATP (Km level), read-out: cMet Activity.
[7] abbreviates: 1 μM ATP (Km level), read-out: ALK Activity (ALK Kinase Inhibition, IC50).
Where [8] appears, read: 1 μM ATP (Km level), read-out: cMet Activity (c-Met Kinase Inhibition, IC50).
Where [9] appears, read: 1 μM ATP (Km level), 30 ng/ml ALK, 37° C., 15 minutes, read-out: ALK Activity (ALK kinase inhibition, IC50 class).
Setting [10] is: 1 μM ATP (Km level), 10 ng/mL c-Met, read-out: cMet Activity (c-Met kinase inhibition, IC50 class).

Structures are written as SMILES. Where two headings read alike, the source gives them in different places.

T1 sequence (Q9UM73 19-1620): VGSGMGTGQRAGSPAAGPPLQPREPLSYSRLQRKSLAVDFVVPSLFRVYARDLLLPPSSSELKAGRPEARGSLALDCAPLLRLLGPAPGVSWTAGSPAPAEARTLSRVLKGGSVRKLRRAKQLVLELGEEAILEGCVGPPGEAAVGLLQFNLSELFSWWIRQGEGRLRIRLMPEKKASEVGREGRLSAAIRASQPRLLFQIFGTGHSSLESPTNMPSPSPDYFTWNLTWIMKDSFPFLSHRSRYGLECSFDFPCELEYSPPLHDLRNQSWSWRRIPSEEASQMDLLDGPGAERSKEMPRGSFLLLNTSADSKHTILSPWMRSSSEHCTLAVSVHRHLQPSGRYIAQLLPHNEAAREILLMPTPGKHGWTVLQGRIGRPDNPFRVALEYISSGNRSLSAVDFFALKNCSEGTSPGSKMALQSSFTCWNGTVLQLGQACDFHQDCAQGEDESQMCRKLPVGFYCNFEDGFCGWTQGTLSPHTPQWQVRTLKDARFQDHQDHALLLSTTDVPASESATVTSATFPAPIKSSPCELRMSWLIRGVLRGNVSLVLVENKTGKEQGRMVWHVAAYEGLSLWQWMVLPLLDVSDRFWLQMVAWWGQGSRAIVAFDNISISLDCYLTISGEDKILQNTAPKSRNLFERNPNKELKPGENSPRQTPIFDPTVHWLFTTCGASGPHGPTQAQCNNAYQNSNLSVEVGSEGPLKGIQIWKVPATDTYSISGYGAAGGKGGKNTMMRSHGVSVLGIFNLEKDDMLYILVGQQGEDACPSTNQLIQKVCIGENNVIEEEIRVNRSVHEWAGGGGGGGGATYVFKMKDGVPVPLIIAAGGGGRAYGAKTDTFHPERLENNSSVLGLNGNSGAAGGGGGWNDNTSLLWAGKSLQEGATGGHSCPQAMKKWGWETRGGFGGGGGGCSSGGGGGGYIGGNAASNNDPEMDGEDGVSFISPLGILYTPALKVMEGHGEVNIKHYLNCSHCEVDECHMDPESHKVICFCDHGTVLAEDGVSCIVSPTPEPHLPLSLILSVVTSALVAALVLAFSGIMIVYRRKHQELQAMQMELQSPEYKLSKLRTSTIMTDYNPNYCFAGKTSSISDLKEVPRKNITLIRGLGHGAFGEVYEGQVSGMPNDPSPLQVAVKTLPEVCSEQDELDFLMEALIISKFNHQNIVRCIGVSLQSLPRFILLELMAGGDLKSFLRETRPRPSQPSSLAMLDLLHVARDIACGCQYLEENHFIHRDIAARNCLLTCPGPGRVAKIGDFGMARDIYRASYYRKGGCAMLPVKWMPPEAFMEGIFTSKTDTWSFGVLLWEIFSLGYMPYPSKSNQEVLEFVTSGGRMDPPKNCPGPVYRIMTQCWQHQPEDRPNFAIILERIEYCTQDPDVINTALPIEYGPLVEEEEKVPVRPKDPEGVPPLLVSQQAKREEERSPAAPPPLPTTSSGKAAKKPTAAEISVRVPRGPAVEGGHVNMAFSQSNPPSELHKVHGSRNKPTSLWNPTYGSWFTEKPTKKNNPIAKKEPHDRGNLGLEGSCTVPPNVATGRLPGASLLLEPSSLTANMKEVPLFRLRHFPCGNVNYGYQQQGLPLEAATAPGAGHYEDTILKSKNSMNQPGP

In the case of `C#CCNC(=O)c1cccc(F)c1Nc1nc(Nc2ccc3c(c2)OCCCN3CCN2CCCC2)ncc1Cl` [Example 1719, 2-{5-Chloro-2-[9-(2-pyrrolidin-1-yl-ethyl)-6,7,8,9-tetrahydro-5-oxa-9-aza-benzocyclohepten-3-ylamino]-pyrimidin-4-ylamino}-3-fluoro-N-prop-2-ynyl-benzamide], the IC50 in test [1] (setting [3]) and in test [2] (setting [4]) was below 0.1 µM throughout.

As to `CCC1C(=O)N(CC)CCc2cc(Nc3ncc(Cl)c(NC4CCCCC4NS(C)(=O)=O)n3)c(OC)cc21` [Example 151, N-{(1R,2R)-2-[5-Chloro-2-(1,3-diethyl-8-methoxy-2-oxo-2,3,4,5-tetrahydro-1H-benzo[d]azepin-7-ylamino)-pyrimidin-4-ylamino]-cyclohexyl-methanesulfonamide], the values for the IC50 in test [1] (setting [5]) and in test [2] (setting [6]) were below 0.1 µM and above 10 µM, respectively.

As for `CS(=O)(=O)N[C@@H]1CCCC[C@H]1Nc1nc(Nc2ccc3c(c2)CCC(F)(F)CC3)ncc1Cl` [Example 181, N-{(1R,2R)-2-[5-Chloro-2-(7,7-difluoro-6,7,8,9-tetrahydro-5H-benzocyclohepten-2-ylamino)-pyrimidin-4-ylamino]-cyclohexyl}-methanesulfonamide], the IC50 in test [1] (setting [5]) was below 0.1 µM; in test [2] (setting [6]), 1 to 10 µM.

Turning to `COCC(COC)N1CCc2cc(Nc3ncc(Cl)c(Nc4ccc(N5CCOCC5)cc4OC)n3)c(OC)cc2CC1` [Example 814, 5-Chloro-N*2*-[8-methoxy-3-(2-methoxy-1-methoxymethyl-ethyl)-2,3,4,5-tetrahydro-1H-benzo[d]azepin-7-yl]-N*4*-(2-methoxy-4-morpholin-4-yl-phenyl)-pyrimidine-2,4-diamine], the IC50 is below 0.1 µM in test [1] (setting [7]) and above 10 µM in test [2] (setting [8]).

As for `COc1cc2c(cc1Nc1ncc(F)c(Nc3ccc(N4CCOCC4)cc3OC)n1)CCN(CC(=O)OC(C)C)CC2` [Example 811, {7-[5-Fluoro-4-(2-methoxy-4-morpholin-4-yl-phenylamino)-pyrimidin-2-ylamino]-8-methoxy-1,2,4,5-tetrahydro-benzo[d]azepin-3-yl}-acetic acid isopropyl ester], the figures for the IC50 in test [1] (setting [7]) and in test [2] (setting [8]) were 0.1 to 1 µM and above 10 µM, respectively.

On to `COc1cc2c(cc1Nc1ncc(Cl)c(Nc3ccccc3-c3nccn3C)n1)CCN(CC(=O)N(C)C)CC2` [Example 999, 2-(7-{5-Chloro-4-[2-(1-methyl-1H-imidazol-2-yl)-phenylamino]-pyrimidin-2-ylamino}-8-methoxy-1,2,4,5-tetrahydro-benzo[d]azepin-3-yl)-N,N-dimethyl-acetamide], for which the IC50 in test [1] (setting [7]) was below 0.1 µM; in test [2] (setting [8]), above 10 µM.

`CCN1CCc2cc(Nc3ncc(Cl)c(NC4C5C=CC(C5)C4C(N)=O)n3)c(OC)cc2CC1=O` (stereo not drawn) [Example 252, (2-exo,3-exo)-3-[5-Chloro-2-(3-ethyl-8-methoxy-2-oxo-2,3,4,5-tetrahydro-1H-benzo[d]azepin-7-ylamino)-pyrimidin-4-ylamino]-bicyclo[2.2.1]hept-5-ene-2-carboxylic acid amide]: the IC50 in test [1] (setting [5]) is below 0.1 µM; in test [2] (setting [6]) it was above 10 µM.

On to `COc1cc2c(cc1Nc1ncc(Cl)c(Nc3ccccc3S(C)(=O)=O)n1)CCN(CC(N)=O)CC2` [Example 1143, 2-{7-[5-Chloro-4-(2-methanesulfonyl-phenylamino)-pyrimidin-2-ylamino]-8-methoxy-1,2,4,5-tetrahydro-benzo[d]azepin-3-yl}-acetamide], for which the values for the IC50 in test [1] (setting [9]) and in test [2] (setting [10]) were below 0.1 µM and above 10 µM, respectively.

As to `COc1cccc(C(=O)NCCC#N)c1Nc1nc(Nc2ccc3c(c2)CCCC(=O)N3C)ncc1Cl` [Example 1062, 2-[5-Chloro-2-(1-methyl-2-oxo-2,3,4,5-tetrahydro-1H-benzo[b]azepin-7-ylamino)-pyrimidin-4-ylamino]-N-(2-cyano-ethyl)-3-methoxy-benzamide], the IC50 was above 10 µM in test [1] (setting [9]) and 1 to 10 µM in test [2] (setting [10]).

As to `CNC(=O)c1scc(C)c1Nc1nc(Nc2ccc3c(c2)CCOC(=O)N3C)ncc1Cl` [Example 1759, 3-[5-Chloro-2-(5-methyl-6-oxo-5,6,8,9-tetrahydro-7-oxa-5-aza-benzocyclohepten-2-ylamino)-pyrimidin-4-ylamino]-4-methyl-thiophene-2-carboxylic acid methylamide], the IC50 was 1 to 10 µM in test [1] (setting [3]) and below 0.1 µM in test [2] (setting [4]).

Consider `CCNC(=O)c1cccc(F)c1Nc1nc(Nc2cccc3c2OCCCC3(C)C)ncc1Cl` [Example 874, 2-[5-Chloro-2-(5,5-dimethyl-2,3,4,5-tetrahydro-benzo[b]oxepin-9-ylamino)-pyrimidin-4-ylamino]-N-ethyl-3-fluoro-benzamide], for which the IC50 in test [1] (setting [7]) was 0.1 to 1 µM; in test [2] (setting [8]), above 10 µM.

`CCN1C(=O)CCCc2cc(Nc3ncc(Cl)c(N[C@@H]4CCCC[C@H]4NS(C)(=O)=O)n3)c(OC)cc21` [Example 130, N-{(1R,2R)-2-[5-Chloro-2-(1-ethyl-8-methoxy-2-oxo-2,3,4,5-tetrahydro-1H-benzo[b]azepin-7-ylamino)-pyrimidin-4-ylamino]-cyclohexyl}-methanesulfonamide]: the results for the IC50 in test [1] (setting [5]) and in test [2] (setting [6]) were below 0.1 µM and above 10 µM, respectively.

`CCN1C(=O)CCCc2c1ccc(Nc1ncc(Cl)c(NC3C4C=CC(C4)C3C(=O)NC(C)C)n1)c2OC` (stereo not drawn) [Example 603, (2-exo-3-exo)-3-[5-Chloro-2-(1-ethyl-6-methoxy-2-oxo-2,3,4,5-tetrahydro-1H-benzo[b]azepin-7-ylamino)-pyrimidin-4-ylamino]-bicyclo[2.2.1]hept-5-ene-2-carboxylic acid isopropylamide]: the IC50 was 0.1 to 1 µM in test [1] (setting [7]) and above 10 µM in test [2] (setting [8]).

With `CCN1CCNC(=O)c2ccc(Nc3ncc(Cl)c(Nc4ccccc4-c4nccn4C)n3)cc21` [Example 1453, 8-{5-Chloro-4-[2-(1-methyl-1H-imidazol-2-yl)-phenylamino]-pyrimidin-2-ylamino}-1-ethyl-1,2,3,4-tetrahydro-benzo[e][1,4]diazepin-5-one], the IC50 in test [1] (setting [3]) is below 0.1 µM; in test [2] (setting [4]), 0.1 to 1 µM.

Turning to `COc1ccccc1Nc1nc(Nc2ccc3c(c2)CCC(NCC(F)F)CC3)ncc1Cl` (centres unmarked) [Example 663, 5-Chloro-N*2*-[7-(2,2-difluoro-ethylamino)-6,7,8,9-tetrahydro-5H-benzocyclohepten-2-yl]-N*4*-(2-methoxy-phenyl)-pyrimidine-2,4-diamine], the results for the IC50 in test [1] (setting [7]) and in test [2] (setting [8]) were below 0.1 µM and 1 to 10 µM, respectively.

For `C#CCN1CCc2ccc(Nc3ncc(Cl)c(N[C@@H]4CCCC[C@H]4NS(C)(=O)=O)n3)cc2CC1` [Example 325, N-{(1R,2R)-2-[5-Chloro-2-(3-prop-2-ynyl-2,3,4,5-tetrahydro-1H-benzo[d]azepin-7-ylamino)-pyrimidin-4-ylamino]-cyclohexyl}-methanesulfonamide], the results for the IC50 in test [1] (setting [5]) and in test [2] (setting [6]) were below 0.1 µM and 0.1 to 1 µM, respectively.

Consider `CC1(C)CCCOc2c(Nc3ncc(Cl)c(Nc4ccccc4OCC#N)n3)cccc21` [Example 880, {2-[5-Chloro-2-(5,5-dimethyl-2,3,4,5-tetrahydro-benzo[b]oxepin-9-ylamino)-pyrimidin-4-ylamino]-phenoxy}-acetonitrile], for which the values for the IC50 in test [1] (setting [7]) and in test [2] (setting [8]) were 1 to 10 µM and above 10 µM, respectively.

On to `CNC(=O)c1ccccc1Nc1nc(Nc2ccc3c(c2)C(=O)NCCN3C)ncc1Cl` [Example 428, 2-[5-Chloro-2-(1-methyl-5-oxo-2,3,4,5-tetrahydro-1H-benzo[e][1,4]diazepin-7-ylamino)-pyrimidin-4-ylamino]-N-methylbenzamide], for which the IC50 in test [1] (setting [5]) and in test [2] (setting [6]) was below 0.1 µM throughout.

Turning to `CNC(=O)c1cccc(C)c1Nc1nc(Nc2ccc3c(c2)CCN(CCOC)CC3)ncc1C(F)(F)F` [Example 922, 2-{2-[3-(2-Methoxyethyl)-2,3,4,5-tetrahydro-1H-benzo[d]azepin-7-ylamino]-5-trifluoromethylpyrimidin-4-ylamino}-3,N-dimethylbenzamide], the IC50 in test [1] (setting [7]) is 0.1 to 1 µM; in test [2] (setting [8]) it was below 0.1 µM.

With `CNC(=O)c1ccsc1Nc1nc(Nc2ccc3c(c2)CCN(CCOC)CC3)ncc1Cl` [Example 1484, 2-{5-Chloro-2-[3-(2-methoxy-ethyl)-2,3,4,5-tetrahydro-1H-benzo[d]azepin-7-ylamino]-pyrimidin-4-ylamino}-thiophene-3-carboxylic acid methylamide], the IC50 in test [1] (setting [3]) and in test [2] (setting [4]) was 0.1 to 1 µM each time.

As for `CCN1C(=O)CCC(C)(C)c2ccc(Nc3ncc(Cl)c(Nc4c(F)cccc4S(=O)(=O)C(C)C)n3)cc21` [Example 1252, 8-{5-Chloro-4-[2-fluoro-6-(propane-2-sulfonyl)-phenylamino]-pyrimidin-2-ylamino}-1-ethyl-5,5-dimethyl-1,3,4,5-tetrahydro-1-benzazepin-2-one], the IC50 in test [1] (setting [9]) is below 0.1 µM; in test [2] (setting [10]), 1 to 10 µM.

`CNC(=O)c1sc(Br)c(C)c1Nc1nc(Nc2ccc3c(c2)CCOC(=O)N3C)ncc1Cl` [Example 1771, 5-Bromo-3-[5-chloro-2-(5-methyl-6-oxo-5,6,8,9-tetrahydro-7-oxa-5-aza-benzocyclohepten-2-ylamino)-pyrimidin-4-ylamino]-4-methyl-thiophene-2-carboxylic acid methylamide]: the IC50 in test [1] (setting [3]) was 0.1 to 1 µM; in test [2] (setting [4]), below 0.1 µM.
